Measured values: the supplement of paper PMC9663587

Legend:
Assay in all cases: GRmax, 72 h; higher = less effect;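 note: breast cell lines in 384-well plates, nine doses across a 10^4 range, Dye Drop imaging of viable cells vs DMSO and time-zero plates, GR 0 means no net growth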
SUM52PE = test system: SUM52PE
MDAMB361 = test system: MDAMB361
HCC1937 = test system: HCC1937
SUM1315 = test system: SUM1315
T47D = test system: T47D
MCF12A = test system: MCF12A
SUM149 = test system: SUM149
MGH312 = test system: MGH312
CAMA1 = test system: CAMA1
MDAMB231 = test system: MDAMB231
CAL51 = test system: CAL51
EVSAT = test system: EVSAT

SMILES	GRmax, 72 h (SUM52PE)	GRmax, 72 h (MDAMB361)	GRmax, 72 h (HCC1937)	GRmax, 72 h (SUM1315)	GRmax, 72 h (T47D)	GRmax, 72 h (MCF12A)	GRmax, 72 h (SUM149)	GRmax, 72 h (MGH312)	GRmax, 72 h (CAMA1)	GRmax, 72 h (MDAMB231)	GRmax, 72 h (CAL51)	GRmax, 72 h (EVSAT)
COc1ccc2c(c1)[C@]1(C[C@H]1c1ccc3c(/C=C/c4ccc(CN5C[C@@H](C)O[C@@H](C)C5)cc4)n[nH]c3c1)C(=O)N2	0.121 GR	0.272 GR	-0.149 GR	-0.232 GR	-0.0071 GR	0.0038 GR	-0.0713 GR	-0.28 GR	-0.0117 GR	0.0653 GR	0.0084 GR	-0.0524 GR
COc1cccc(OCCCN)c1-c1cc(Nc2cnc(C#N)cn2)n[nH]1	-0.292 GR	-0.386 GR	0.0059 GR	-0.419 GR	0.428 GR	-0.167 GR	-0.453 GR	0.887 GR	0.084 GR	-0.172 GR	0.0443 GR	0.713 GR
CC(=O)Nc1cccc(-n2c(=O)n(C3CC3)c(=O)c3c(Nc4ccc(I)cc4F)n(C)c(=O)c(C)c32)c1 (max 1 µM)	0.577 GR	0.502 GR	0.689 GR	0.133 GR	0.58 GR	-0.0287 GR	0.237 GR	1.12 GR	0.553 GR	-0.178 GR	0.706 GR	0.939 GR
CCc1cnn2c(NCc3ccc[n+]([O-])c3)cc(N3CCCC[C@H]3CCO)nc12 (max 1 µM)	-0.33 GR	-0.275 GR	-0.207 GR	-0.667 GR	-0.211 GR	-0.327 GR	-0.566 GR	-0.951 GR	-0.485 GR	-0.42 GR	-0.358 GR	0.0834 GR
CC(=O)c1c(C)c2cnc(Nc3ccc(N4CCNCC4)cn3)nc2n(C2CCCC2)c1=O (max 3.162 µM)	0.346 GR	0.148 GR	1.08 GR	0.3 GR	0.117 GR	0.684 GR	0.485 GR	1.03 GR	0.282 GR	0.206 GR	0.361 GR	0.646 GR
CCc1cncnc1N1CCN(Cc2nc3ccc(C(F)(F)F)cc3[nH]2)CC1 (max 10 µM)	0.446 GR	0.192 GR	0.769 GR	0.595 GR	0.366 GR	0.964 GR	0.746 GR	0.311 GR	0.655 GR	0.854 GR	0.734 GR	0.711 GR
CCCCOc1c(C(=O)c2c(F)cc(C)cc2F)c[nH]c2nncc1-2 (max 10 µM)	0.299 GR	0.216 GR	-0.0492 GR	-0.296 GR	0.0035 GR	0.338 GR	0.0975 GR	0.0975 GR	-0.0904 GR	0.227 GR	0.28 GR	0.279 GR
CCN1CCN(Cc2ccc(Nc3ncc(F)c(-c4cc(F)c5nc(C)n(C(C)C)c5c4)n3)nc2)CC1 (max 10 µM)	0.332 GR	-0.342 GR	0.302 GR	-0.144 GR	-0.0412 GR	0.393 GR	0.0962 GR	-0.461 GR	0.222 GR	-0.487 GR	-0.464 GR	-0.545 GR
CNc1nc(-c2ccc3c(N)n[nH]c3c2)cc(N2C[C@@H](C(=O)NC3CCCCC3)CC[C@H]2C)n1 (max 10 µM)	0.386 GR	-0.417 GR	0.585 GR	0.421 GR	0.164 GR	0.8 GR	0.698 GR	-0.599 GR	0.716 GR	0.662 GR	0.794 GR	-0.049 GR
CO[C@@H](C)Cn1c(=O)n(C)c2cnc3ccc(-c4cncc(C(C)(C)O)c4)cc3c21 (max 10 µM)	-0.125 GR	-0.988 GR	0.0369 GR	-0.216 GR	-0.289 GR	0.133 GR	-0.0342 GR	-0.795 GR	-0.458 GR	-0.136 GR	-0.159 GR	-0.384 GR
Cc1nn(C)c(COc2ccc(N3CCN(S(=O)(=O)N(C)C)CC3)cc2)c1-c1cccc2c(CCCOc3cccc4ccccc34)c(C(=O)O)n(CCN3CCOCC3)c12 (max 10 µM)	0.373 GR	0.985 GR	0.724 GR	0.74 GR	0.575 GR	0.993 GR	0.391 GR	0.775 GR	0.876 GR	0.957 GR	0.992 GR	0.901 GR
CN(C)CC[C@H](CSc1ccccc1)Nc1ccc(S(=O)(=O)NC(=O)c2ccc(N3CCN(Cc4ccccc4-c4ccc(Cl)cc4)CC3)cc2)cc1[N+](=O)[O-] [ABT-737] (max 10 µM)	0.441 GR	0.844 GR	0.269 GR	0.306 GR	0.589 GR	0.979 GR	-0.28 GR	0.0409 GR	0.864 GR	-0.12 GR	0.876 GR	0.697 GR
C=CCn1c(=O)c2cnc(Nc3ccc(N4CCN(C)CC4)cc3)nc2n1-c1cccc(C(C)(C)O)n1 [AZD1775] (max 10 µM)	-0.226 GR	-0.348 GR	-0.0795 GR	-0.747 GR	0.162 GR	-0.21 GR	-0.497 GR	-0.873 GR	-0.206 GR	-0.282 GR	-0.188 GR	-0.39 GR
CNC(=O)c1cccc(-c2ccc3c(N4CCOC[C@@H]4C)nc(N4CCOC[C@@H]4C)nc3n2)c1 [AZD2014] (max 10 µM)	-0.0804 GR	-0.756 GR	0.366 GR	0.0994 GR	-0.0708 GR	0.147 GR	0.418 GR	-0.693 GR	-0.0933 GR	0.241 GR	0.201 GR	-0.21 GR
NC1(C(=O)N[C@@H](CCO)c2ccc(Cl)cc2)CCN(c2nc[nH]c3nccc2-3)CC1 [AZD5363] (max 10 µM)	0.18 GR	-0.38 GR	0.504 GR	0.694 GR	0.179 GR	0.617 GR	0.34 GR	-0.905 GR	-0.124 GR	1.05 GR	0.565 GR	-0.441 GR
